Test results reported in paper PMC4532832, “GABA signalling modulates plant growth by directly regulating the activity of plant-specific anion transporters” (Nature Communications, 2015).
Positions count from the first letter of the chain named. Where two headings read alike, the source gives them in different places.

Legend:
Type in all cases: cell-based
TaALMT1 [1] = biological target: T1, TaALMT1 (Triticum aestivum, UniProt Q76LB1, F215C); experiment: two-electrode voltage clamp, X. laevis oocytes; conditions: 10 mM malate-activated current, 100 μM GABA
T1 construct: gene ALMT1; full-length, untagged as told; cRNA from pGEMHE-DEST in Xenopus laevis oocytes; BY2 tobacco line for flux
T1 sequence (Q76LB1 1-459 F215C): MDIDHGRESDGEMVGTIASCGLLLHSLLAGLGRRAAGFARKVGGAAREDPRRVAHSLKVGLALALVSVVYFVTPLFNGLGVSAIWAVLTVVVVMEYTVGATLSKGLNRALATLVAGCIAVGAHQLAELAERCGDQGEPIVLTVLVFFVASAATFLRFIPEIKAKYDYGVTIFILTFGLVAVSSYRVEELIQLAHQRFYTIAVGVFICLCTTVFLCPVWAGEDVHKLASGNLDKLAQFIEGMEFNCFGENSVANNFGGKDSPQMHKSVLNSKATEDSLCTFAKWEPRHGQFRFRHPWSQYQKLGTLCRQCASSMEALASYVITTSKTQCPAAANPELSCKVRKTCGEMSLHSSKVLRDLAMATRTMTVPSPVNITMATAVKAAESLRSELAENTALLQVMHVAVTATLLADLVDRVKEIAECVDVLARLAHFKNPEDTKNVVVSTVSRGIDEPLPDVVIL

VvALMT9 [2] = biological target: T2, VvALMT9 (Vitis vinifera, UniProt F6GTK1); experiment: two-electrode voltage clamp, X. laevis oocytes; conditions: read-out: half-maximal effective concentration
T2 construct: gene VIT_17s0000g03850; full-length, untagged as told; cRNA from pGEMHE-DEST in Xenopus laevis oocytes
T2 sequence (F6GTK1 1-588): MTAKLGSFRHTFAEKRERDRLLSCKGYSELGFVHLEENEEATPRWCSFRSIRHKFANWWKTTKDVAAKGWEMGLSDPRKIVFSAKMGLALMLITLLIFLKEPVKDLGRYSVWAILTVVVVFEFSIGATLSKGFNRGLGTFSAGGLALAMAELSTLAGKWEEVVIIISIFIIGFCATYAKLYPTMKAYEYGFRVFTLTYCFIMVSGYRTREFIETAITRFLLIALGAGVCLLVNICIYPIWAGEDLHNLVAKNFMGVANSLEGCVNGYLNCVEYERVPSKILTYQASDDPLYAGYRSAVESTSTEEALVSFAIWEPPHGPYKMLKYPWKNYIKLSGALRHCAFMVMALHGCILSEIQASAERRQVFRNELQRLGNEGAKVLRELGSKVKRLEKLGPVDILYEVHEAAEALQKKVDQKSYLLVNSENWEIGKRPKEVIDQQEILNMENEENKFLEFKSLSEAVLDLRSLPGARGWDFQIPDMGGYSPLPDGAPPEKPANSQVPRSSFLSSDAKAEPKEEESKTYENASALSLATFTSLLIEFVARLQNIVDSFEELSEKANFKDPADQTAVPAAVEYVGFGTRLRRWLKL

TaALMT1 [3] = biological target: T3, TaALMT1 (Triticum aestivum, UniProt Q76LB1, F213C/F215C); experiment: two-electrode voltage clamp, X. laevis oocytes; conditions: read-out: half-maximal effective concentration
T3 construct: gene ALMT1; full-length, untagged as told; cRNA from pGEMHE-DEST in Xenopus laevis oocytes; BY2 tobacco line for flux
T3 sequence (Q76LB1 1-459 F213C/F215C): T1 sequence (Q76LB1 1-459 F215C) with F213C

TaALMT1 [4] = biological target: T4, TaALMT1 (Triticum aestivum, UniProt Q76LB1); experiment: two-electrode voltage clamp, X. laevis oocytes
T4 construct: gene ALMT1; full-length, untagged as told; cRNA from pGEMHE-DEST in Xenopus laevis oocytes; BY2 tobacco line for flux
T4 sequence (Q76LB1 1-459): T1 sequence (Q76LB1 1-459 F215C) with C215F

VvALMT9 [5] = biological target: T5, VvALMT9 (Vitis vinifera, UniProt F6GTK1, Y237C); experiment: two-electrode voltage clamp, X. laevis oocytes; conditions: read-out: half-maximal effective concentration
T5 construct: gene VIT_17s0000g03850; full-length, untagged as told; cRNA from pGEMHE-DEST in Xenopus laevis oocytes
T5 sequence (F6GTK1 entry or part of it Y237C): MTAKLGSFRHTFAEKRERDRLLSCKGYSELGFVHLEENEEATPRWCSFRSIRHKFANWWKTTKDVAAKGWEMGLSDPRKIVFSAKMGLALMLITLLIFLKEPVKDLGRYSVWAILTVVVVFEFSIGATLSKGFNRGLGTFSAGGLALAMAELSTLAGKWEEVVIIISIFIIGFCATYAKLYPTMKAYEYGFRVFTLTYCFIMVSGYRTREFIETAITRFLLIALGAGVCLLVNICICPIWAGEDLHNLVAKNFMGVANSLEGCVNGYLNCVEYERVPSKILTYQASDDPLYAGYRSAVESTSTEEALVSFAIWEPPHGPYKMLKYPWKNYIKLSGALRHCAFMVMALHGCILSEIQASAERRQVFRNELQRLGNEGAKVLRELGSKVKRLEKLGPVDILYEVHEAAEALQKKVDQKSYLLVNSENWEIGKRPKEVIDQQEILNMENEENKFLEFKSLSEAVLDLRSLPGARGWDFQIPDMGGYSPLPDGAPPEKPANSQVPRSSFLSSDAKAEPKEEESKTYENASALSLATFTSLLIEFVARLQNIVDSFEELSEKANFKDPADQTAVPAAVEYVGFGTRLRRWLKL

TaALMT1 [6] = biological target: T4, TaALMT1; experiment: two-electrode voltage clamp in oocytes; malate efflux from TaALMT1-expressing BY2 cells; conditions: 100 μM bicuculline against muscimol or GABA; competitive antagonist

Question: Which results are given for `NCCCC(=O)O` [GABA]?
Answer: inhibition at 100 μM (TaALMT1 [1]): whereas inward current through TaALMT1^F215C was reduced by GABA; EC50 (VvALMT9 [2]): 5 µM; EC50 (TaALMT1 [3]): > 1000 µM; EC50 (TaALMT1 [4]; read-out: half-maximal effective concentration): 3.2 µM; EC50 (VvALMT9 [5]): 697 µM

Question: `CN1CCc2cc3c(cc2[C@H]1[C@@H]1OC(=O)c2c1ccc1c2OCO1)OCO3` [bicuculline] was tested. Which “two-electrode voltage clamp in oocytes; malate efflux from TaALMT1-expressing BY” value (TaALMT1 [6]) did it give?
Answer: The value was “bicuculline appears to act as a competitive antagonist to GABA action for TaALMT1”.

Question: With `NCc1cc(=O)[nH]o1` [muscimol] as the compound, how does the EC50 (TaALMT1 [4]) read?
Answer: Its EC50 is 5.5 µM.
